Calls of active or inactive are those of the source. No cut-off for these calls is given here.

Series [1] concerns Rattus norvegicus. The experiment in a line: Protection against Bacillus anthracis lethal toxin-mediated intoxication in Fischer 344 rat assessed as time to death at 54 mg/kg administered through cannula. Type of series: functional.
The test system of series [2] is Rattus norvegicus. Nature of the series: Toxicity in Bacillus anthracis lethal toxin-mediated intoxicated Fischer 344 rat assessed as adverse side effects administered through cannula. Type of series: organism-based. The note with it: in vivo, other.
The target of series [3] is Diphtheria toxin (Corynebacterium diphtheriae) (UniProt Q5PY51). Nature of the series: Protection against diphtheria toxin-mediated cytotoxicity in CHOK1 cells assessed as cell viability after 48 hrs by WST1 dye reduction assay. The note with it: CHO-K1. Type of series: cell-based. On the technique in general: Tetrazolium assays rely on reduction of a dye to a coloured formazan, in cell work by metabolically active cells.
Diphtheria toxin (Corynebacterium diphtheriae), sequence (Q5PY51 as listed by the source): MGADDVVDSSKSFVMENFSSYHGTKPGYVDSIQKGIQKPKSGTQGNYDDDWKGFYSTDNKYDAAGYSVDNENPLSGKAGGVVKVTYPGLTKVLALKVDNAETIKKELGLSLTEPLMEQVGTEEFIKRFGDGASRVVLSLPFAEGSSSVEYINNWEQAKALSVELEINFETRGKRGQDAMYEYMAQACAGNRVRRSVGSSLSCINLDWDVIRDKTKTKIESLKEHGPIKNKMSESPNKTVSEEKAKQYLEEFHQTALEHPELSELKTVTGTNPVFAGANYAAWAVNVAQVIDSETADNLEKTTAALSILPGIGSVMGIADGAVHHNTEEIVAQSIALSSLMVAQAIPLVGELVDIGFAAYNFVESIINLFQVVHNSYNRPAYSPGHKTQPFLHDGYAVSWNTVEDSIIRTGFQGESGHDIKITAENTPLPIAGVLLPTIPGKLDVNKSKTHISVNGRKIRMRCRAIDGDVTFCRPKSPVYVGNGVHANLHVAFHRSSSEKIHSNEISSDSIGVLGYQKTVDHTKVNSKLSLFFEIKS

Series [4] concerns Rattus norvegicus. Nature of the series: Protection against Bacillus anthracis lethal toxin-mediated intoxication in Fischer 344 rat assessed as time to death at 5.4 mg/kg administered through cannula. Type of series: functional.
The target of series [5] is T1, Calmodulin-sensitive adenylate cyclase (Bacillus anthracis) (UniProt P40136).
T1 sequence (whole entry): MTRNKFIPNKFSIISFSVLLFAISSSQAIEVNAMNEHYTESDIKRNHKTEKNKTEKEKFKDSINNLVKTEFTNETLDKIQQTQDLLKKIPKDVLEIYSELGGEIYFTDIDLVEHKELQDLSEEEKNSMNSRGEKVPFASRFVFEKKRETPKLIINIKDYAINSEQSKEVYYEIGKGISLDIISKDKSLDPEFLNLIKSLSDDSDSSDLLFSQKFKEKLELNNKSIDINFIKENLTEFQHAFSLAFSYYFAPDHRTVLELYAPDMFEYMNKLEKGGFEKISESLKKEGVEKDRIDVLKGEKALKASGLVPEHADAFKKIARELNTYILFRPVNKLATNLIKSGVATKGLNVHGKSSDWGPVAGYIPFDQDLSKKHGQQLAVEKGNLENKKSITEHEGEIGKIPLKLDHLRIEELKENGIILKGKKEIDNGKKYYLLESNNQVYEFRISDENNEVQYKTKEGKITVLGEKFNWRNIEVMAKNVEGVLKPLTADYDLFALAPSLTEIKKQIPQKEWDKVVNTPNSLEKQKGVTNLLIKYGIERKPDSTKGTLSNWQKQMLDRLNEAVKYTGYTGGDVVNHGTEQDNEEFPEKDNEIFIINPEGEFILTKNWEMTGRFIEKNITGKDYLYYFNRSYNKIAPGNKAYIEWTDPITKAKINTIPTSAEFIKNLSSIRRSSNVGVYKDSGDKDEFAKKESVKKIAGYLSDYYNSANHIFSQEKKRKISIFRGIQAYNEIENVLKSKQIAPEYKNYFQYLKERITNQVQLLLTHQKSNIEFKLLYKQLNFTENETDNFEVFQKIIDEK
The experiment in a line: Inhibition of Bacillus anthracis edema toxin-mediated intoxication in CHOK1 cells assessed as cAMP levels after 4 hrs by HTRF assay. Type of series: cell-based. The note with it: CHO-K1. In general terms: Changes in cAMP serve as a functional read-out for many G protein-coupled receptors.

In the next series the test system is CHO-K1. Nature of the series: Inhibition of cholera toxin-mediated intoxication in CHOK1 cells assessed as cAMP levels after 4 hrs by HTRF assay. The note with it: Vibrio cholerae. Type of series: cell-based.
Series [6] addresses Protective antigen (Bacillus anthracis) (UniProt P13423). The experiment in a line: Inhibition of Bacillus anthracis protective antigen binding to cell surface of mouse RAW264.7 cells at 12.5 uM after 2 hrs by flow cytometry. Type of series: cell-based.
The next series deals with Serum. Nature of the series: Drug level in human serum. Type of series: ADME, cell-free. The note with it: read-out: Drug uptake.
Series [7] concerns the target Protective antigen (Bacillus anthracis) (UniProt P13423). The experiment in a line: Inhibition of Bacillus anthracis protective antigen pore formation in mouse RAW264.7 cells at 12.5 uM after 2 hrs. The series is classed as cell-based.
In series [8] the target is T2, Lethal factor (Bacillus anthracis) (UniProt P15917).
T2 sequence (whole entry): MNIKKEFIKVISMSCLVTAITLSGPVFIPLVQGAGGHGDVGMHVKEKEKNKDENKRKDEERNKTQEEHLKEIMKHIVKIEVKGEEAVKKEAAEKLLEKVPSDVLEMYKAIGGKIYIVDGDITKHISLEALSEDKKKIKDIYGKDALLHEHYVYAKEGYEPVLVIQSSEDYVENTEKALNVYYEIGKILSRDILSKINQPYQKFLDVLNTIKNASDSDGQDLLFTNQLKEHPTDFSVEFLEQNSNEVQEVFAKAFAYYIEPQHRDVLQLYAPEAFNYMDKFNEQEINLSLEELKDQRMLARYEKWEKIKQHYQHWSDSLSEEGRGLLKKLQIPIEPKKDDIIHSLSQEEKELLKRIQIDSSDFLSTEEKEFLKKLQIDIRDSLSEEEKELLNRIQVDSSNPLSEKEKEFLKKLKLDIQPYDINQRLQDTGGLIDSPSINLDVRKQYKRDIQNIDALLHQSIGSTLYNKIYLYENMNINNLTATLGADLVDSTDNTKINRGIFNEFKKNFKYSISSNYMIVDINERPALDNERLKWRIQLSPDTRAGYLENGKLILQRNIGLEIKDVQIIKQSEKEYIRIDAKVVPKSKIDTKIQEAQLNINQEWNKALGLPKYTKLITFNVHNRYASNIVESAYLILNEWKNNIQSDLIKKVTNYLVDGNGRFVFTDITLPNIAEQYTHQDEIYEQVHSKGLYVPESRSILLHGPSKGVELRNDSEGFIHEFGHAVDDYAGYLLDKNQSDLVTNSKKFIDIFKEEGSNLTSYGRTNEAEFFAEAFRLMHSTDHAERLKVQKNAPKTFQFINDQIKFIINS
The experiment in a line: Protection against Bacillus anthracis lethal toxin-mediated cytotoxicity in mouse RAW264.7 cells assessed as change in viability at 0.125 to 12.5 uM relative to toxin-treated control. The series is classed as cell-based.

Another series concerns Plasmodium falciparum. The experiment in a line: Antimalarial activity against Plasmodium falciparum. Type of series: functional, organism-based.

Protective antigen (Bacillus anthracis), sequence (P13423 whole entry): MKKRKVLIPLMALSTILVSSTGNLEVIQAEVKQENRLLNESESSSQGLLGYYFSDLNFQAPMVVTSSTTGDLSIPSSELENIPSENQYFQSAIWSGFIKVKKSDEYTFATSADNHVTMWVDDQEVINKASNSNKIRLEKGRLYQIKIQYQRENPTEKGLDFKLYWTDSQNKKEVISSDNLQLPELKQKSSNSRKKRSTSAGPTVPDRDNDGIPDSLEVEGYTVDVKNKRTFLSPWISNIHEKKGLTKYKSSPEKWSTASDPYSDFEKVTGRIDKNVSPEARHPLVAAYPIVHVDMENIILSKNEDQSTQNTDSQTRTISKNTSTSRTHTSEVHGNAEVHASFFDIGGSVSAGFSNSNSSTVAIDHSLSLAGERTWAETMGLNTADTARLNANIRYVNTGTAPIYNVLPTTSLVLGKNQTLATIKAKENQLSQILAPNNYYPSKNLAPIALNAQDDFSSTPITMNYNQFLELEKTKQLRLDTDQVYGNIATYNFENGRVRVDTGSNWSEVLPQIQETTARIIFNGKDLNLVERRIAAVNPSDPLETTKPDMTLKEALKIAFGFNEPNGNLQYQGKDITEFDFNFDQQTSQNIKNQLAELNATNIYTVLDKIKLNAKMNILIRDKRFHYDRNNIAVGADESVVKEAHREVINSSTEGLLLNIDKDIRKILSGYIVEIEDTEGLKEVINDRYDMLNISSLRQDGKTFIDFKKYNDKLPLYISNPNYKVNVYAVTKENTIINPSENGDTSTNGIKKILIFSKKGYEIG

Turning to `CCCCc1oc2ccccc2c1C(=O)c1cc(I)c(OCCN(CC)CC)c(I)c1` [AMIODARONE], the Activity with Rattus norvegicus [1] is 82.6 min; in the series with Rattus norvegicus [2] it was “Non-toxic”; in the series with Rattus norvegicus [4], 64.8 min. Further, the outcome in [3], in series [5] and in [7] was Active. Also, the outcome (in the series on CHO-K1; in series [6]) was inactive. Also, the concentration in the series with Serum is 3.75 µM.

On to `CC1=C(/C=C/C(C)=C\C=C\C(C)=C\C(=O)O)C(C)(C)CCC1`, for which the fold change (FC) in series [8] was 2.6.

Turning to `CC1(C)Oc2ccc(C#N)cc2[C@@H](OC2=CC(=O)CC2)[C@@H]1O`, the fold change (FC) in series [8] is 3.

For orientation: IC50 means the point on the concentration scale where inhibition reaches its midpoint. Turning to `CC(C)COCC(CN(Cc1ccccc1)c1ccccc1)N1CCCC1` (centres undefined) [BEPRIDIL], the outcome in series [3], in [5] and in series [7] was Active. In addition, the outcome (with CHO-K1; in [6]) was inactive. Further, the IC50 in the series on Plasmodium falciparum was 2.5 µM. In the series with Serum, the concentration stood at 6.8 µM.

As for `N=C(NC(=O)c1nc(Cl)c(N)nc1N)Nc1ccccc1`, the fold change (FC) in [8] worked out at 2.8.

`CCCNCC(O)COc1ccccc1C(=O)CCc1ccccc1` (centres undefined): in [8], the fold change (FC) was 3.1.

Take `CCCCCCCCCCCCCCCCOC[C@@H](COP(=O)([O-])OCC[N+](C)(C)C)OC(C)=O`: the fold change (FC) in series [8] was determined as 3.2.

Consider `CC1(C)CCC(C)(C)c2cc(C(=O)Nc3ccc(C(=O)O)cc3)ccc21`, for which, in series [8], the fold change (FC) came to 3.9.

As for `O=S(=O)(NCCNC/C=C/c1ccc(Br)cc1)c1cccc2cnccc12`, the fold change (FC) in series [8] was 2.9.

Consider `CC1=C(/C=C/C(C)=C/C=C/C(C)=C/C(=O)O)C(C)(C)CCC1`, for which the fold change (FC) in series [8] stood at 3.

Regarding `O=c1[nH]c2cc(C(F)(F)F)ccc2n1-c1cc(C(F)(F)F)ccc1O`, the fold change (FC) in [8] was 2.8.

On to `COc1ccc(S(=O)(=O)N(CCO)c2ccccc2CN(C)C/C=C/c2ccc(Cl)cc2)cc1`, for which the fold change (FC) in [8] was determined as 6.3.

In the case of `CC1=C(/C=C/C(C)=C/C=C/C(C)=C\C(=O)O)C(C)(C)CCC1`, the fold change (FC) in series [8] is 3.2.

`C1CCC(/N=C(\NC23CC4CC(CC(C4)C2)C3)N2CCOCC2)CC1`: the fold change (FC) in series [8] was determined as 3.9.

On to `N[C@@H](COP(=O)(O)O)C(=O)O`, for which the fold change (FC) in [8] came to 2.8.

(Values after ChEMBL document CHEMBL1157366 (Antimicrob Agents Chemother, 2007).)
